Like-named read-outs stand apart in the source and are kept apart here.
Experiments:
Toxoplasma gondii WT = system: T1, Toxoplasma gondii WT; assay: microbe, parasite or virus in culture; set-up: species or system human foreskin fibroblasts (HFF); T. gondii RH NLuc tachyzoite growth in HFF monolayer, Nano-Glo luciferase luminescence; settings: Fibroblast, 48 h
T1 construct: RH
Method: Compounds were synthesized (HPLC purity > 95%) according to reported procedures. A confluent Human Foreskin Fibroblast (HFF) monolayer was infected with 2,000 tachyzoites of RH parasites expressing the NLuc luciferase (RH NLuc) for 2 h to allow parasite invasion. Each compound was added to the culture medium, and infected cells were incubated at 37° C for 48 h. To measure luminescence, the medium was replaced by 50 μL of PBS, and the luminescence assay was performed using Nano-Glo Luciferase Assay System according to the manufacturer’s instructions (Promega). After 3 min of incubation, the luminescence was measured using the CLARIOstar (BMG Labtech) plate reader. EC50 was determined using a non-linear regression analysis of normalized data assuming a sigmoidal dose-response. […] Statistical analyses were performed using a one-way ANOVA test with GraphPad software.  Fig 4 Activity of five compounds on PRS edited parasites. A-D) EC50 values for L95, L96, L97, and L36 were determined for wild-type (WT) and the engineered PRS mutant strains (T477A and T592S). Data are mean value ±SD from at least 2 independent biological replicates, each with 3 technical replicates. Associated dose-response curves are shown in S2C Fig. Higher EC50 values for the mutants confirm that PRS is the molecular target of all five compounds tested. The P-values were calculated using one-way ANOVA analysis and multiple-comparison post hoc tests. n.s., not significant. Associated dose-response curves are shown in S1 Fig. E) The EC50 (nM) values for the engineered PRS mutant strains (T477A and T592S) are shown in comparison with the TgPRS wild type. F) The catalytic cavity of TgPRS is shown with two inhibitors along with their electron densities–HFG (green) and L95 (red)–bound to the tRNA and L-pro binding sites and the ATP binding site respectively. The ribbon of PRS is in cyan whilst the resistance-conferring mutating residues T477 and T592 to L35 are shown in purple. (n.d.–not detected).

[1] = target: T2, Toxoplasma gondii prolyl-tRNA synthetase (TgPRS) (Toxoplasma gondii, UniProt S8G8I1); assay: co-crystal structure with L-pro; aminoacylation inhibition (malachite green); thermal shift (ΔTm […] °C with L-Pro); format: biochemical
T2 construct: gene TGME49_219850; length 334–830

[2] = target: T2, Toxoplasma gondii prolyl-tRNA synthetase (TgPRS); assay: as above; format: biochemical; remark: listed apart in the source
[3] = target: T3, Homo sapiens prolyl-tRNA synthetase (HsPRS) (Homo sapiens, UniProt P07814); assay: co-crystal structure with L-pro; aminoacylation inhibition; thermal shift (ΔTm […] °C with L-pro); format: binding
T3 construct: gene EPRS1; length 1015–1506
T3 sequence (P07814 1015-1506): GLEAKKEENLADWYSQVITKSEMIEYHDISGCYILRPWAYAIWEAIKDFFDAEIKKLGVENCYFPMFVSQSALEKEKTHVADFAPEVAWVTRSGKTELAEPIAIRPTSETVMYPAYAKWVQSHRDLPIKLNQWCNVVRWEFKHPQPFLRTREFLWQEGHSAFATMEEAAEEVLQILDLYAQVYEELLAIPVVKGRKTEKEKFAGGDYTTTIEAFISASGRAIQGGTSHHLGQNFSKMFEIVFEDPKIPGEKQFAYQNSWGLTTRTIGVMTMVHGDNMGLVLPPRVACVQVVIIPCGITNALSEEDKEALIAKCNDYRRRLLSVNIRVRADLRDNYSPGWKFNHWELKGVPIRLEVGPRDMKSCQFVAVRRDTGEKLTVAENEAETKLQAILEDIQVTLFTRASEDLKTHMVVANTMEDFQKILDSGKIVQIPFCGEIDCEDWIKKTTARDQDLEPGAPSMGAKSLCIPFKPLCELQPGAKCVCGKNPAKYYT

[4] = target: T2, Toxoplasma gondii prolyl-tRNA synthetase (TgPRS); assay: co-crystal structure with L-pro; aminoacylation inhibition (malachite green); thermal shift (ΔTm […] °C with L-Pro); format: biochemical; remark: listed apart in the source
[5] = target: T3, Homo sapiens prolyl-tRNA synthetase (HsPRS); assay: co-crystal structure with L-pro; aminoacylation inhibition; thermal shift (ΔTm […] °C with L-pro); format: binding; remark: listed apart in the source
[6] = target: T2, Toxoplasma gondii prolyl-tRNA synthetase (TgPRS); assay: co-crystal structure with L-pro; aminoacylation inhibition (malachite green); thermal shift (ΔTm […] °C with L-Pro); format: biochemical; remark: listed apart in the source
[7] = target: T3, Homo sapiens prolyl-tRNA synthetase (HsPRS); assay: co-crystal structure with L-pro; aminoacylation inhibition; thermal shift (ΔTm […] °C with L-pro); format: binding; remark: listed apart in the source
[8] = target: T2, Toxoplasma gondii prolyl-tRNA synthetase (TgPRS); assay: co-crystal structure with L-pro; aminoacylation inhibition (malachite green); thermal shift (ΔTm […] °C with L-Pro); format: biochemical; remark: listed apart in the source

T2 sequence (S8G8I1 entry or part of it): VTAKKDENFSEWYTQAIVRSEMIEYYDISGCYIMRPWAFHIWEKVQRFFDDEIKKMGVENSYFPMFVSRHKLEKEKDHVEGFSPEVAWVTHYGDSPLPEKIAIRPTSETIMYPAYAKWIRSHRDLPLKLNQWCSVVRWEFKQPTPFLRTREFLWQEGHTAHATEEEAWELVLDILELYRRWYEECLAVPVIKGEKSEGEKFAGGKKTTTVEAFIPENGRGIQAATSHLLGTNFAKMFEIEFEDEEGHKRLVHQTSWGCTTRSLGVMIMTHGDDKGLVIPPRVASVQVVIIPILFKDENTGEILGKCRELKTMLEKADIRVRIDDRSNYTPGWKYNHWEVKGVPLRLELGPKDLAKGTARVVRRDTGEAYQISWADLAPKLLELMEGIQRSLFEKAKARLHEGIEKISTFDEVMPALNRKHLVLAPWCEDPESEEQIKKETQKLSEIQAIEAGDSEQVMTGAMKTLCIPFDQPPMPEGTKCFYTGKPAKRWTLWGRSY

`Cc1cc(N2CC[C@@](C#N)(C3(C)CC3)C2=O)cc(C(=O)NCc2cc(F)cc(-c3cnn(C)c3)c2)n1` [L35] showed an EC50 (Toxoplasma gondii WT; read-out: EC50 Treated-L35 (nM)) of 31 ± 12 nM and an IC50 [1] of 9.2 nM.
Work on `Cc1cc(N2CC[C@](C#N)(C3(C)CC3)C2=O)cc(C(=O)NCc2cc(F)cc(-c3cnn(C)c3)c2)n1` [L36] yielded an EC50 (Toxoplasma gondii WT; read-out: EC50 Treated-L36 (nM)) of 5800 ± 350 nM and an IC50 [2] of 2410 nM.
With `Cc1cc(N2CC[C@@](C#N)(C3CC3)C2=O)cc(NC(=O)Cc2ccccc2)n1` [L95] the “co-crystal structure with L-pro; aminoacylation inhibition; thermal shift (ΔTm 1)” value [3] was “The complex structure of HsPRS with L95, L96, and L97 was determined”, the EC50 (Toxoplasma gondii WT; read-out: EC50 Treated-L95 (nM)) was 277 ± 6 nM and the IC50 [4] was 140 nM.
With `COc1cncc(-c2cc(F)cc(CNC(=O)c3cc(N4CC[C@@](C#N)(C5CC5)C4=O)cc(C)n3)c2)c1` [L96] the “co-crystal structure with L-pro; aminoacylation inhibition; thermal shift (ΔTm 2)” value [5] was “The complex structure of HsPRS with L95, L96, and L97 was determined”, the EC50 (Toxoplasma gondii WT; read-out: EC50 Treated-L96 (nM)) was 106 ± 36 nM and the IC50 [6] was 79.7 nM.
`Cc1cc(N2CCC(CO)(C3CC3)C2=O)cc(C(=O)NCc2cc(F)cc(-c3cnn(C)c3)c2)n1` (centres unmarked) [L97] was tested, and the “co-crystal structure with L-pro; aminoacylation inhibition; thermal shift (ΔTm 1)” value [7] was “The complex structure of HsPRS with L95, L96, and L97 was determined”, the EC50 (Toxoplasma gondii WT; read-out: EC50 Treated-L97 (nM)) was 544 ± 130 nM and the IC50 [8] was 50 nM.
For `CCc1nc(N)nc(N)c1-c1ccc(Cl)cc1` [PYR, pyrimethamine], the EC50 (Toxoplasma gondii WT; read-out: EC50 Treated-PYR (nM)) was 174 ± 60 nM.

Source: publication PMC9974123, “Targeting prolyl-tRNA synthetase via a series of ATP-mimetics to accelerate drug discovery against toxoplasmosis” (PLOS Pathogens, 2023)
